Test results from patent US8436159B2, “Glyphosate resistant class I 5-endolpyruvylshikimate-3-phosphate synthase (EPSPS)” (Monsanto Technology LLC, priority 2003, dated 2013).
Substitutions are numbered along the chain they refer to.

Columns and labels:
[1] = target: T1, maize (Zea mays) class I EPSPS variant TIPI (T102I, P106I), pMON42486 (Zea mays, UniProt O24566, P106I/T102I); assay: EPSPS steady-state kinetics, TIPI variant; assay type: biochemical
T1 construct: pMON42486
T1 sequence (O24566 1-444 T102I/P106I): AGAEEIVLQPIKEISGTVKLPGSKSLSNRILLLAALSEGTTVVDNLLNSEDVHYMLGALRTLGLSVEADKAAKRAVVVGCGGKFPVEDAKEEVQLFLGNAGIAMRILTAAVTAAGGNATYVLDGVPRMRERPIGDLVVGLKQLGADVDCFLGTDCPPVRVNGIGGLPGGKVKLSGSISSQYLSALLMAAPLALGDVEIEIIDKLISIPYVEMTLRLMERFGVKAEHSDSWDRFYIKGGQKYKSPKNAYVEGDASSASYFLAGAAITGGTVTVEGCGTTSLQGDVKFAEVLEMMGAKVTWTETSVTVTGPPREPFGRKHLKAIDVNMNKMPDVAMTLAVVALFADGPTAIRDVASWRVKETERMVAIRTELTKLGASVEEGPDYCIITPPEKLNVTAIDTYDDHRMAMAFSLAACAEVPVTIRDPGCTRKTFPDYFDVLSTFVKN
Description: (§1) The double variants of the present invention were made using pMON58452 (FIG. 5) as the template. This pMON58452 EPSPS gene template contains the maize EPSPS double variant T102I, P106T (TIPT) that was constructed by mutagenesis of pMON70467 with the mutagenesis primers mEmut-9-U and mEmut-10-L. The various mutagenesis primer sequences were designed and then were synthesized by Invitrogen Corp., Custom Primers and used in combination in a PCR to create the variant EPSPS coding sequences. The PCR was set up in a 50 μl reaction in the following manner: dH2O 38 μl; 2 mM dNTP 1 μL; 10× buffer 5 μL; pMON58452 1 μL (10 ng); primer-U 2 μL; primer-L 2 μL; pfu Turbo enzyme 1 μL. PCR was carried out on a MJ Research PTC-200 thermal cycler using the following program: Step 1—94° C. for 30 seconds; Step 2—94° C. for 30 seconds; Step 3—55° C. for 1 minute; Step 4—68° C. for 14 minute; Step 5—go to step 2, 16 times; Step 6—End. At the end of the PCR, 1 μl of the restriction enzyme DpnI was added to each 50 μl of PCR reaction and the mixture was incubated at 37° C. for 1 hour. […]

[2] = target: T2, maize (Zea mays) class I EPSPS variant TIPV (T102I, P106V), pMON42482 (Zea mays, UniProt O24566, P106V/T102I); assay: EPSPS steady-state kinetics, TIPV variant; assay type: biochemical
T2 construct: pMON42482
T2 sequence (O24566 1-444 T102I/P106V): T1 sequence (O24566 1-444 T102I/P106I) with I106V
Description: as §1

O=C(O)CNCP(=O)(O)O [glyphosate, N-phosphonomethylglycine]
Ki [1]: 2.5 ± 0.9 mM | Ki [2]: 1.6 ± 0.4 mM
